The values that follow come from patent publication US5814627A, “3, 5-disubstituted and 3, 4, 5-trisubstituted 2-isoxazolines and isoxazoles, process for their preparation and their use as pharmaceuticals” (Hoechst Aktienegesellschaft, priority 1994, dated 1998).

The subject of test [1] is leukotriene B4 synthesis in white blood cells. Put plainly: Test 3: LTB4 formation by white blood cells. Type of test: cell-based. The conditions noted are these: Homo sapiens, read-out: Test 3 residual activity (LTB4 formation), percent of control. Summed up: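 Human blood leukocytes (dextran sedimentation, 10^7 cells/ml) preincubated 15 min at 37 °C with compound plus CaCl2/MgCl2, then stimulated with A23187/glutathione for 5 min at 37 °C. LTB4 in supernatant quantified by reversed-phase HPLC with UV at 280 nm; residual activity given as percent of control at stated μM concentration.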

Test [2] relates to TNFα release from mononuclear cells. Kind of test: Test 4: cytokine release from LPS-stimulated mononuclear cells, TNFα. It counts as cell-based. The conditions noted are these: Homo sapiens, read-out: Test 4 residual activity (TNFα release), percent of control. Here is the method:
Test 4. Stimulation of the cytokine release
Isolation of mononuclear cells from human blood
10 ml of human blood, stabilized with 1 ml of 3.8% sodium citrate solution, were diluted with 10 ml of PM16 (Serva, Heidelberg) and underlaid with 15 ml of Lymphoprep (Dr. Molter GmbH, Heidelberg). The samples were centrifuged, at room temperature for 40 minutes, at 400×g (1600 rpm, Minifuge 2, Heraeus, Osterode). The mononuclear cells are visible as a white ring at the Lymphoprep/plasma interface. This ring was carefully removed with a syringe, diluted with an equal volume of PM16, and centrifuged for 10 minutes at 400×g. The sediment was washed with approximately 10 ml of RPMI1640 (+300 mg/l L-glutamine, Gibco, Eggenstein) (Wallis, 1986). After the cells had been resuspended in approximately 1 ml of RPMI1640 (+300 mg/l L-glutamine+25 mM HEPES+100 μg/ml streptomycin+100 μg/ml penicillin), the cell density was determined using a Coulter Counter JT (Coulter Diagnostics) and adjusted to 5*10^6 /ml. Typically, the cells are composed of 90% lymphocytes and 10% monocytes.
230 μl of mononuclear cells were incubated, at 37° C.; 5% CO2 for 20-22 hours (5 hours in the case of IL-6), with 10 μl of test substance (10 μM in DMSO/water, 1/10) and 10 μl of lipopolysaccharide (LPS; 500 μg dissolved in 1 ml of DMSO and diluted 1/10 with water prior to beginning the test; from Salmonella abortus equi, Sigma, Deisenhofen). The samples were cooled down to 0° C. in an ice bath and centrifuged in a Sigma centrifuge (2 minutes; 2000 rpm). Aliquots of the supernatant are measured with an ELISA (Biermann, Bad Nauheim). The abbreviation IL stands for interleukin and TNF for tumor necrosis factor alpha.
The values in the table show the concentration of the test substance which was employed in μM and, besides this, the residual activity measured in percent based on the control, which was set to be 100%. The interleukin is additionally indicated in test 4.

Test [3] relates to cyclooxygenase-dependent thrombocyte aggregation. Put plainly: Test 5: Cyclooxygenase-dependent thrombocyte aggregation. It counts as cell-based, human. Particulars: Homo sapiens, arachidonic acid as inducer, read-out: Test 5 residual activity (cyclooxygenase-dependent thrombocyte aggregation), percent of control. Summed up:
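Citrated human platelet-rich plasma was preincubated 10 min at 37 °C with test substance diluted 1:30 in 50 mM Tris-HCl pH 8.0, 90 mM NaCl. Aggregation was triggered with arachidonic acid (5 mg/ml, 20 μl) under 800 rpm stirring in an aggregometer. Values are tested concentration (μM) and residual activity as % of control.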

Test [4] has as its system tumor cell line 20-10-5S (hybridoma cell line). Put plainly: Test 8: Inhibition of tumor cell proliferation. It counts as cell-based. Particulars: 48 h + 16 h tritiated thymidine incorporation; 20-10-5S cells. In general terms: Dividing cells build labelled thymidine or BrdU into new DNA.

With `CC(C)(C)c1cc(C2CC(CCC(=O)O)=NO2)cc(C(C)(C)C)c1O` (centres unmarked) [Example 63, 5-(4-Hydroxy-3,5-di-tert-butylphenyl)-2-isoxazolin-3-ylpropionic acid], the activity at 10 µM in test [1] is 91%.
Consider `CC(C)(C)c1cc(C2=NOC(c3ccccn3)C2)cc(C(C)(C)C)c1O` (centres unmarked) [Example 9], for which the activity at 10 µM in test [2] is 63%. In test [1], the activity at 1 µM was 59% and the activity at 10 µM was found to be 0%. Besides, the activity at 100 µM in test [3] was 92%.
For orientation: IC50 means the concentration that gives 50% inhibition. Consider `CCOC(=O)CNC(=O)OCCCc1cc(-c2cc(C(C)(C)C)c(O)c(C(C)(C)C)c2)no1` [Example 41, N-(3-(4-Hydroxy-3,5-di-tert-butylphenyl)isoxazol-5-ylpropoxycarbonyl)glycine ethyl ester], for which the half-maximal inhibitory concentration (IC50) in test [4] was less than 5 µM. Besides, the values for the activity at 10 µM in test [2] and in test [1] were 89% and 13%, respectively. For the same compound, the activity at 100 µM in test [3] worked out at 95%.
`CC(O)c1cc(-c2cc(C(C)(C)C)c(O)c(C(C)(C)C)c2)no1` (centres unmarked) [Example 28]: the IC50 in test [4] was less than 5 µM. Also, in test [1], the activity at 1 µM was 14% and the activity at 10 µM stood at 0%. In addition, in test [3] (10 μM), the activity at 10 µM was found to be 93%.
`CC(C)(C)c1cc(-c2cc(CNS(=O)(=O)C(F)(F)F)on2)cc(C(C)(C)C)c1O` [Example 49, N-(3-(4-Hydroxy-3,5-di-tert-butylphenyl)isoxazol-5-ylmethyl)trifluoromethanesulfonamide]: the IC50 in test [4] was 5 to 10 µM. Further, in test [2], the activity at 10 µM is 91%. Moreover, in test [1], the activity at 1 µM was found to be 90% and the activity at 10 µM is 0%.
